Test results: publication PMC6112376, “Comprehensive Analyses and Prioritization of Tox21 10K Chemicals Affecting Mitochondrial Function by in-Depth Mechanistic Studies” (Environmental Health Perspectives, 2018)
Like-named read-outs stand apart in the source and are kept apart here. Where a SMILES comes first, the peptide text is derived from it. [ ]: non-standard residue; d: D form. Orn = NCCC[C@H](N)C(=O)O

How the values were obtained:
HepG2 cells [1] = settings: for IC50: read-out: MMP assays IC50 (µM) HepG2
rat primary hepatocytes [2] = tested on: rat primary hepatocytes
HepG2 cells [3] = settings: cited from earlier work
rat primary hepatocytes [4] = assay: MMP assay in rat primary hepatocytes; settings: for IC50: read-out: MMP assays IC50 (µM) Rat Hepatocytes
HepG2 cells [5] = assay: cells; settings: Homo sapiens; for IC50: HepG2, read-out: MMP assays IC50 (µM) HepG2; for Emax: HepG2, read-out: MMP assays efficacy (%) HepG2
[6] = read-out: MMP assays IC50 (µM) qHTS-HepG2
[7] = read-out: MMP assays IC50 (µM), qHTS-HepG2

Row | Compound | MMP assays efficacy (%) HepG2 (HepG2 cells [1]) | IC50 (HepG2 cells [1]) [µM] | MMP assays efficacy (%) Rat Hepatocytes (rat primary hepatocytes [2]) | MMP assays efficacy (%) qHTS-HepG2 (HepG2 cells [3]) [%] | IC50 (HepG2 cells [3]; [6]) [µM] | IC50 (rat primary hepatocytes [4]) [µM] | MMP assays IC50 (µM) Rat Hepatocytes (rat primary hepatocytes [4]) | MMP assays IC50 (µM) HepG2 (HepG2 cells [1]) | IC50 (HepG2 cells [3]; [7]) [µM] | IC50 (HepG2 cells [5]) [µM] | Emax (HepG2 cells [5]) [%] | IC50 (rat primary hepatocytes [4]; Rattus norvegicus, Hepatocyte) [µM]
1 | O=C(N[C@@H]1N=C(c2ccccc2F)c2cccc3c2N(CC3)C1=O)c1cc2ccccc2[nH]1 | -81% | 13.8 | -61±16% | -64±4 | 8.41 | 17.3 |  |  |  |  |  | 
2 | O=C(Nc1cccc([N+](=O)[O-])c1)c1cc2ccccc2cc1O | -93% | 0.28 | -89±5% | -91±2 | 0.24 ± 0.09 | 1.6 ± 0.26 |  |  |  |  |  | 
3 | Cl.Nc1c2ccccc2nc2ccccc12.O | -115% | 21.8 | -56±22% | -82±4 | 13.8 ± 1.75 | 8.51 ± 5.35 |  |  |  |  |  | 
4 | Cc1cc(Nc2ccccc2C(=O)O)ccc1Cl | -100% | 35.5 | -92±11% | -99±8 | 12.8 ± 0.84 | 22.7 ± 16.2 |  |  |  |  |  | 
5 | O=C1[C@H](CC[C@H](O)c2ccc(F)cc2)[C@@H](c2ccc(O)cc2)N1c1ccc(F)cc1 | -112% |  | -52±2% | -81±11 | 25.6 ± 3.54 | 16.6 ± 20.1 |  |  |  |  |  | 
6 | CC1=C(/C=C/C(C)=C/C=C/C(C)=C/C(=O)Nc2ccc(O)cc2)C(C)(C)CCC1 | -92% | 4.89 | inactive | -100±0 | 3.4 ± 0.76 |  | inactive |  |  |  |  | 
7 | CS(=O)(=O)O.CS(=O)(=O)O.N=C(N)c1ccc(/C=C/c2ccc(C(=N)N)cc2O)cc1 | inactive |  | -71±16% | -57±17 |  | 13.6 ± 8.28 |  | inactive | 2.81 ± 0.9 |  |  | 
8 | CC#C[C@]1(O)CC[C@H]2[C@@H]3CCC4=CC(=O)CCC4=C3[C@@H](c3ccc(N(C)C)cc3)C[C@@]21C | inactive |  | inactive | -97±21 |  |  | inactive | inactive | 16.1 ± 32.5 |  |  | 
9 | Cl.Nc1ccc(Nc2ccccc2)cc1 | -54% | 28.2 | inactive | -69±28 |  |  | inactive |  | 5.82 ± 6.96 |  |  | 
10 | CNC(=O)c1cc(Oc2ccc(NC(=O)Nc3ccc(Cl)c(C(F)(F)F)c3)cc2)ccn1 | -92% | 1.23 | -72±24% |  |  | 2.25 ± 0.63 |  |  | 0.96 ± 0.09 |  |  | 
11 | O=S(=O)(c1ccc(Cl)cc1)c1cc(Cl)c(Cl)cc1Cl [Tetradifon] |  |  | -77±25% | -98±2 |  |  |  |  | 15.3 ± 7.43 | 17.8 | 96 | 12.1 ± 6.57
12 | IC(I)=C(I)I [Tetraiodoethene] |  |  | -115±28% | -105±22 |  |  |  |  | 5.45 ± 1.27 | 6.31 | 103 | 22.6 ± 14.4
13 | CCC[C@@]1(CCc2ccccc2)CC(O)=C([C@H](CC)c2cccc(NS(=O)(=O)c3ccc(C(F)(F)F)cn3)c2)C(=O)O1 [Tipranavir] |  |  | -96±11% | -93±5 |  |  |  |  | 26.6 ± 4.94 | 17.3 | 100 | 29.2 ± 2.37
14 | COP(=S)(OC)Oc1c(Cl)cc(C)cc1Cl [Tolclofos-methyl] |  |  | -74±66% | -72±22 |  |  |  |  | 30.6 ± 5.8 | 39.8 | 105 | 31.2 ± 19
15 | Cc1c(Cl)cccc1Nc1ccccc1C(=O)O [Tolfenamic acid] |  |  | -105±5% | -115±7 |  |  |  |  | 11.9 | 17.3 | 98 | 14.8 ± 4.38
16 | Cc1ccccc1C(=O)Nc1ccc(C(=O)N2CCCC(O)c3cc(Cl)ccc32)c(C)c1 (stereo not shown) [Tolvaptan] |  |  | -67±60% | -65±11 |  |  |  |  | 17.4 ± 8.01 | 19.4 | 50 | 17.4 ± 2
17 | CC1(C)[C@H](C=C(Cl)Cl)[C@H]1C(=O)OCc1c(F)c(F)cc(F)c1F [Transfluthrin] |  |  | inactive | -89±13 |  |  | inactive |  | 25 ± 4.09 | 19.4 | 70 | 

Row | Compound | MMP assays efficacy (%) HepG2 (HepG2 cells [1]) | IC50 (HepG2 cells [1]) [µM] | MMP assays efficacy (%) Rat Hepatocytes (rat primary hepatocytes [2]) | MMP assays efficacy (%) qHTS-HepG2 (HepG2 cells [3]) [%] | IC50 (HepG2 cells [3]; [6]) [µM] | IC50 (rat primary hepatocytes [4]) [µM] | MMP assays IC50 (µM) Rat Hepatocytes (rat primary hepatocytes [4]) | MMP assays IC50 (µM) HepG2 (HepG2 cells [1]) | IC50 (HepG2 cells [3]; [7]) [µM] | IC50 (HepG2 cells [5]) [µM] | Emax (HepG2 cells [5]) [%] | IC50 (rat primary hepatocytes [4]; Rattus norvegicus, Hepatocyte) [µM]
18 | Oc1cc(Cl)ccc1Oc1ccc(Cl)cc1Cl [Triclosan] |  |  | -58±19% | -101±5 |  |  |  |  | 1.5 ± 0.88 | 6.15 | 123 | 15.2 ± 13.5
19 | CCCN(CCC)c1c([N+](=O)[O-])cc(C(F)(F)F)cc1[N+](=O)[O-] [Trifluralin] |  |  | -53±24% | -53±8 |  |  |  |  | 46.7 ± 9.14 | 39.8 | 78 | 32.6 ± 23.1
20 | O=P(Oc1ccccc1)(Oc1ccccc1)Oc1ccccc1 [Triphenyl phosphate] |  |  | -56±38% | -98±14 |  |  |  |  | 1.38 ± 1.48 | 1.26 | 48 | 28.9 ± 9.26
21 | O=P(OCC(Br)CBr)(OCC(Br)CBr)OCC(Br)CBr (stereo not shown) [Tris(2,3-dibromopropyl) phosphate] |  |  | -91±11% | -99±7 |  |  |  |  | 45.8 ± 8.72 | 50.1 | 110 | 44 ± 10.7
22 | C[C@H]1CCCC(=O)CCC/C=C/c2cc(O)cc(O)c2C(=O)O1 [Zearalenone] |  |  | -68±24% | -110±22 |  |  |  |  | 4.67 ± 1.77 | 5.84 | 115 | 22 ± 1.79
23 | CCN(CC)C(=S)[S-].CCN(CC)C(=S)[S-].[Zn+2] [Zinc diethyldithiocarbamate] | -63% |  | -95±12% | -70±15 |  |  |  |  |  |  |  | 
24 | COC1C(O)CC(OC2CC(Oc3cc4cc5c(c(O)c4c(O)c3C)C(=O)[C@@H](OC3CC(OC4CC(OC6CC(C)(O)C(OC(C)=O)C(C)O6)C(O)C(C)O4)C(O)C(C)O3)[C@H]([C@H](OC)C(=O)[C@@H](O)[C@@H](C)O)C5)OC(C)C2OC(C)=O)OC1C (stereo partly shown) [chromomycin] |  |  | inactive | -84±13 | 12.3 ± 0.84 |  | inactive |  |  | 35.5 | 44 | 
25 | CC(C)C[C@@H]1NC(=O)[C@H](CCCN)NC(=O)[C@H](C(C)C)NC(=O)[C@@H]2CCCN2C(=O)[C@@H](Cc2ccccc2)NC(=O)[C@H](CC(C)C)NC(=O)[C@H](CCCN)NC(=O)[C@H](C(C)C)NC(=O)[C@@H]2CCCN2C(=O)[C@@H](Cc2ccccc2)NC1=O [gramicidin, reference compound] (cyclo(L[dF]PV[Orn]L[dF]PV[Orn])) | -121% |  | -112±28% | -86±3 |  |  |  |  | 0.51 ± 0.42 |  |  | 
26 | CC1(C)[C@H](C(=O)O[C@H](C#N)c2cccc(Oc3ccccc3)c2)[C@@H]1/C=C(\Cl)C(F)(F)F [lambda-Cyhalothrin] |  |  | -56±14% | -68±22 |  |  |  |  | 24.4 ± 1.59 | 15.8 | 58 | 28.2
27 | C[C@]12O[C@H](C[C@]1(O)CO)n1c3ccccc3c3c4c(c5c6ccccc6n2c5c31)CNC4=O [lestaurtinib] |  |  | -92±26% | -84±9 |  |  |  |  | 4.8 ± 0.97 | 5.62 | 100 | 12.8 ± 2.67
28 | Clc1ccc(C(c2ccccc2Cl)C(Cl)Cl)cc1 (stereo not shown) [o,p'-DDD] |  |  | -45±27% | -112±11 |  |  |  |  | 19.8 ± 0.94 | 19.4 | 151 | 24.2 ± 14.7
29 | Clc1ccc(C(c2ccccc2Cl)C(Cl)(Cl)Cl)cc1 (stereo not shown) [o,p'-DDT] |  |  | inactive | -86±11 |  |  | inactive |  | 24 ± 12.1 | 25.1 | 101 | 
30 | Clc1ccc(C(c2ccc(Cl)cc2)C(Cl)Cl)cc1 [p,p'-DDD] |  |  | -37±12% | -103±18 |  |  |  |  | 15.2 ± 8.82 | 39.8 | 108 | 42.2 ± 19.8
31 | ClC(Cl)=C(c1ccc(Cl)cc1)c1ccc(Cl)cc1 [p,p'-DDE] |  |  | inactive | -96±25 |  |  | inactive |  | 25.6 ± 1.71 | 44.7 | 105 | 
32 | Clc1ccc(C(c2ccc(Cl)cc2)C(Cl)(Cl)Cl)cc1 [p,p'-DDT] |  |  | inactive | -99±12 |  |  | inactive |  | 24.3 ± 2.74 | 30.8 | 69 | 
33 | CC(C)[C@@H](Nc1ccc(C(F)(F)F)cc1Cl)C(=O)OC(C#N)c1cccc(Oc2ccccc2)c1 (stereo partly shown) [tau-Fluvalinate] |  |  | inactive |  |  |  | inactive |  | 37.2 ± 15.1 | 31.6 | 58 | 
